According to patent US20090318568A1, “ADHERENT COATING FOR TISSUE SURFACE AND/OR TRANS-TISSUE SURFACE SUBSTANCE DELIVERY” (priority 2009, published 2009):

Legend:
[1] = Analysis of the filtered paclitaxel solution in glycerol + 1,2-propylene glycol; format: physicochemical; settings: 100 mg paclitaxel in 100 g USP glycerol warmed to about 50° C.
Description: To this mixture, 60 g of 1,2-propylene glycol was added; the new mixture was mixed, and warmed further.

[2] = Analysis of the paclitaxel residue dissolved in 1,2-propylene glycol; format: physicochemical; settings: 100 g 1,2-propylene glycol, 135° C. for 45 min
Description: The residue from filtering the glycerol solution of EXAMPLE 1 was added to 100 g of 1,2-propylene glycol, and the resulting mixture warmed to 50° C.; little of the solid material appeared to dissolve. The mixture was then placed in an oven at 135° C. and heated for 45 min.

CC(=O)O[C@H]1C(=O)[C@@]2(C)[C@H]([C@H](OC(=O)c3ccccc3)[C@]3(O)C[C@H](OC(=O)[C@H](O)[C@@H](NC(=O)c4ccccc4)c4ccccc4)C(C)=C1C3(C)C)[C@]1(OC(C)=O)CO[C@@H]1C[C@@H]2O [paclitaxel]
dissolution in glycerol (observation) [1]: little of the paclitaxel appeared to dissolve | concentration in solution [2]: 230 µg/mL
